# In patent US20190374554A1, “USE OF OXYGENATED CHOLESTEROL SULFATES (OCS) TO TREAT INFLAMMATORY SKIN DISEASE AND SKIN LESIONS” (Virginia Commonwealth University, priority 2016, published 2019):
# Where “and” joins values, the source holds several entries; their conditions need not be identical. Equal values may be shown once.
# Assay: Infusion compatibility: 25HC3S diluted in 0.9% sodium chloride infusion bag and eluted through infusion sets (potency, osmolality, pH, appearance)
# Type: physicochemical
# Method: A physical and chemical compatibility study was conducted at a 30 mg, 48 mg and 300 mg 25HC3S dose in 5% dextrose and 0.9% sodium chloride infusion bags. Descriptions of the two kinds of infusion sets tested with 25HC3S product diluted in 5% dextrose and 0.9% sodium chloride are listed in Table 15. The tubing in catalog number 2H8480 infusion set was composed of polyvinylchloride (PVC), while the tubing in catalog number 2C8858 was polyethylene lined except for a short pump segment (approximately 12 inches) which was composed of PVC.
# 25HC3S for Injection and Vehicle for 25HC3S for Injection, that had been stored at 2-8° C. for approximately 16 months, were used for the compatibility study. After constitution, 30 mg (1.0 mL of constituted product), 48 mg (1.6 mL of constituted product) or 300 mg (10 mL of constituted product) were added to 100 mL infusion bags of 5% dextrose and 0.9% sodium chloride, mixed thoroughly, and stored for 24 hours at room temperature and at 2-8° C. […] Taking into consideration the overfill per infusion bag and the additional volume introduced by adding the constituted 25HC3S product to each bag, the expected concentrations of 25HC3S were 0.28 mg/mL, 0.44 mg/mL, and 2.56 mg/mL in the infusion bags. Two kinds of infusion sets were then attached to the drug containing infusion bags, and the entire contents were eluted through the infusion sets at approximately 50 mL/hour at room temperature. Samples were collected from the 25HC3S prepared infusion bags at T=0 and at 24 hours, and from the total eluent passed through the infusion sets, and tested for 25HC3S concentration using HPLC. Solution visual appearance, osmolality (using method USP<785>), and pH (using method USP<791>) were also measured on the collected samples.
# [1] = 0.9% sodium chloride bag, approx. 0.28 mg/mL 25HC3S
# [2] = 0.9% sodium chloride bag, approx. 0.44 mg/mL 25HC3S
# [3] = 0.9% sodium chloride bag, approx. 2.56 mg/mL 25HC3S
# [4] = 0.9% sodium chloride, approx. 0.28 mg/mL, bag 24 h at 2-8° C., Baxter 2C8858
# [5] = 0.9% sodium chloride, approx. 0.28 mg/mL, bag 24 h at 2-8° C., Baxter 2H8480
# [6] = 0.9% sodium chloride, approx. 0.28 mg/mL, bag 24 h at 25° C., Baxter 2C8858
# [7] = 0.9% sodium chloride, approx. 0.28 mg/mL, bag 24 h at 25° C., Baxter 2H8480
# [8] = 0.9% sodium chloride, approx. 0.44 mg/mL, bag 24 h at 2-8° C., Baxter 2C8858
# [9] = 0.9% sodium chloride, approx. 0.44 mg/mL, bag 24 h at 2-8° C., Baxter 2H8480
# [10] = 0.9% sodium chloride, approx. 0.44 mg/mL, bag 24 h at 25° C., Baxter 2C8858
# [11] = 0.9% sodium chloride, approx. 0.44 mg/mL, bag 24 h at 25° C., Baxter 2H8480
# [12] = 0.9% sodium chloride, approx. 2.56 mg/mL, bag 24 h at 2-8° C., Baxter 2C8858
# [13] = 0.9% sodium chloride, approx. 2.56 mg/mL, bag 24 h at 2-8° C., Baxter 2H8480
# [14] = 0.9% sodium chloride, approx. 2.56 mg/mL, bag 24 h at 25° C., Baxter 2C8858
# [15] = 0.9% sodium chloride, approx. 2.56 mg/mL, bag 24 h at 25° C., Baxter 2H8480
# [16] = sodium chloride, approximately 0.28 mg/mL 25HC3S
# [17] = sodium chloride, approximately 0.44 mg/mL 25HC3S
# [18] = sodium chloride, approximately 2.56 mg/mL 25HC3S
smiles,measurement,setting,value
"C[C@H](CCCC(C)(C)O)[C@H]1CC[C@H]2[C@@H]3CC=C4C[C@@H](OS(=O)(=O)[O-])CC[C@]4(C)[C@H]3CC[C@]12C.[Na+] [Formulation 25HC3S, 5-cholesten-3, 25-diol, 3-sulfate]",24 Hours at 2-8° C. Concentration,[1],0.275 mg/mL
same,24 Hours at 2-8° C. Osmolality,[1],276 mmol/kg
same,24 Hours at 2-8° C. pH,[1],5.87 and 5.99
same,24 Hours at 25° C. Concentration,[1],0.272 mg/mL and 0.274 mg/mL
same,24 Hours at 25° C. Osmolality,[1],275 mmol/kg and 277 mmol/kg
same,24 Hours at 25° C. pH,[1],5.93 and 5.92
same,T = 0 Conc.,[1],0.273 mg/mL and 0.274 mg/mL and 0.275 mg/mL
same,T = 0 Osmolality,[1],278 mmol/kg and 277 mmol/kg
same,T = 0 pH,[1],6.39 and 6.43 and 6.45 and 6.40
same,24 Hours at 2-8° C. % Remaining Compared to T = 0,[2],(100.0%)
same,24 Hours at 2-8° C. Concentration,[2],0.434 mg/mL and 0.425 mg/mL
same,24 Hours at 2-8° C. Osmolality,[2],281 mmol/kg
same,24 Hours at 2-8° C. pH,[2],7.43 and 7.19
same,24 Hours at 25° C. % Remaining Compared to T = 0,[2],(100.0%)
same,24 Hours at 25° C. Concentration,[2],0.434 mg/mL and 0.424 mg/mL
same,24 Hours at 25° C. Osmolality,[2],280 mmol/kg
same,24 Hours at 25° C. pH,[2],7.33 and 7.41
same,T = 0 Conc.,[2],0.434 mg/mL and 0.424 mg/mL and 0.425 mg/mL
same,T = 0 Osmolality,[2],277 mmol/kg and 279 mmol/kg and 284 mmol/kg and 280 mmol/kg
same,T = 0 pH,[2],7.30 and 7.43 and 7.21 and 7.44
same,24 Hours at 2-8° C. Concentration,[3],2.510 mg/mL and 2.520 mg/mL
same,24 Hours at 2-8° C. Osmolality,[3],283 mmol/kg
same,24 Hours at 2-8° C. pH,[3],5.93 and 5.96
same,24 Hours at 25° C. Concentration,[3],2.500 mg/mL and 2.525 mg/mL
same,24 Hours at 25° C. Osmolality,[3],282 mmol/kg
same,24 Hours at 25° C. pH,[3],6.01 and 5.86
same,T = 0 Conc.,[3],2.450 mg/mL and 2.530 mg/mL and 2.525 mg/mL
same,T = 0 Osmolality,[3],282 mmol/kg and 281 mmol/kg
same,T = 0 pH,[3],6.20 and 6.10 and 6.07 and 6.11
same,After Storage in Infusion Bag and Collection from Infusion Set % Remaining Compared to T = 0,[4],(100.0%)
same,After Storage in Infusion Bag and Collection from Infusion Set Concentration,[4],0.275 mg/mL
same,After Storage in Infusion Bag and Collection from Infusion Set Osmolality,[4],276 mmol/kg
same,After Storage in Infusion Bag and Collection from Infusion Set pH,[4],5.78
same,After Storage in Infusion Bag and Collection from Infusion Set % Remaining Compared to T = 0,[5],(100.4%)
same,After Storage in Infusion Bag and Collection from Infusion Set Concentration,[5],0.275 mg/mL
same,After Storage in Infusion Bag and Collection from Infusion Set Osmolality,[5],277 mmol/kg
same,After Storage in Infusion Bag and Collection from Infusion Set pH,[5],5.81
same,After Storage in Infusion Bag and Collection from Infusion Set % Remaining Compared to T = 0,[6],(100.0%)
same,After Storage in Infusion Bag and Collection from Infusion Set Concentration,[6],0.274 mg/mL
same,After Storage in Infusion Bag and Collection from Infusion Set Osmolality,[6],276 mmol/kg
same,After Storage in Infusion Bag and Collection from Infusion Set pH,[6],5.83
same,After Storage in Infusion Bag and Collection from Infusion Set % Remaining Compared to T = 0,[7],(99.6%)
same,After Storage in Infusion Bag and Collection from Infusion Set Concentration,[7],0.272 mg/mL
same,After Storage in Infusion Bag and Collection from Infusion Set Osmolality,[7],276 mmol/kg
same,After Storage in Infusion Bag and Collection from Infusion Set pH,[7],5.78
same,After Storage in Infusion Bag and Collection from Infusion Set % Remaining Compared to T = 0,[8],(100.2%)
same,After Storage in Infusion Bag and Collection from Infusion Set Concentration,[8],0.426 mg/mL
same,After Storage in Infusion Bag and Collection from Infusion Set Osmolality,[8],281 mmol/kg
same,After Storage in Infusion Bag and Collection from Infusion Set pH,[8],7.16
same,After Storage in Infusion Bag and Collection from Infusion Set % Remaining Compared to T = 0,[9],(100.0%)
same,After Storage in Infusion Bag and Collection from Infusion Set Concentration,[9],0.434 mg/mL
same,After Storage in Infusion Bag and Collection from Infusion Set Osmolality,[9],282 mmol/kg
same,After Storage in Infusion Bag and Collection from Infusion Set pH,[9],7.13
same,After Storage in Infusion Bag and Collection from Infusion Set % Remaining Compared to T = 0,[10],(100.0%)
same,After Storage in Infusion Bag and Collection from Infusion Set Concentration,[10],0.424 mg/mL
same,After Storage in Infusion Bag and Collection from Infusion Set Osmolality,[10],288 mmol/kg
same,After Storage in Infusion Bag and Collection from Infusion Set pH,[10],7.20
same,After Storage in Infusion Bag and Collection from Infusion Set % Remaining Compared to T = 0,[11],(99.8%)
same,After Storage in Infusion Bag and Collection from Infusion Set Concentration,[11],0.433 mg/mL
same,After Storage in Infusion Bag and Collection from Infusion Set Osmolality,[11],286 mmol/kg
same,After Storage in Infusion Bag and Collection from Infusion Set pH,[11],7.09
same,After Storage in Infusion Bag and Collection from Infusion Set % Remaining Compared to T = 0,[12],(99.8%)
same,After Storage in Infusion Bag and Collection from Infusion Set Concentration,[12],2.520 mg/mL
same,After Storage in Infusion Bag and Collection from Infusion Set Osmolality,[12],283 mmol/kg
same,After Storage in Infusion Bag and Collection from Infusion Set pH,[12],5.70
same,After Storage in Infusion Bag and Collection from Infusion Set % Remaining Compared to T = 0,[13],(100.0%)
same,After Storage in Infusion Bag and Collection from Infusion Set Concentration,[13],2.530 mg/mL
same,After Storage in Infusion Bag and Collection from Infusion Set Osmolality,[13],283 mmol/kg
same,After Storage in Infusion Bag and Collection from Infusion Set pH,[13],5.72
same,After Storage in Infusion Bag and Collection from Infusion Set % Remaining Compared to T = 0,[14],(99.6%)
same,After Storage in Infusion Bag and Collection from Infusion Set Concentration,[14],2.520 mg/mL
same,After Storage in Infusion Bag and Collection from Infusion Set Osmolality,[14],279 mmol/kg
same,After Storage in Infusion Bag and Collection from Infusion Set pH,[14],5.83
same,After Storage in Infusion Bag and Collection from Infusion Set % Remaining Compared to T = 0,[15],(100.4%)
same,After Storage in Infusion Bag and Collection from Infusion Set Concentration,[15],2.460 mg/mL
same,After Storage in Infusion Bag and Collection from Infusion Set Osmolality,[15],283 mmol/kg
same,After Storage in Infusion Bag and Collection from Infusion Set pH,[15],5.81
same,deviation of 25HC3S concentrations from the initial T=0 time point,"0.9% sodium chloride, after 24 hours at room temperature and at 2-8° C., and after elution through infusion sets",≤ 2.0%
same,osmolality trend,sodium chloride drug containing solutions,no consistent trends over time in the infusion bag or after elution through the infusion sets
same,solution visual appearance,"sodium chloride, all three concentrations, after 24 hours in bags and after elution",remained as clear and colorless solutions
same,decrease of pH over 24 hours in the infusion bags,[16],~0.5 pH unit
same,pH change after elution through the infusion sets,[16],decrease by approximately a tenth of a pH
same,pH change after elution through the infusion sets,[17],decrease by a few tenths of a pH
same,pH trend over time in the infusion bags,[17],no consistent trends over time in the infusion bags
same,pH change after elution through the infusion sets,[18],drop by a few tenths of a pH
same,pH change over time in the infusion bags,[18],slight decrease by a tenth of a pH
